According to BindingDB's records for doi:10.7270/Q2Z31X54 (Burnham Center For Chemical Genomics, 2011):

Target: T1, Endoribonuclease toxin MazF (Escherichia coli (strain K12), UniProt P0AE70)
T1 sequence (P0AE70 whole entry): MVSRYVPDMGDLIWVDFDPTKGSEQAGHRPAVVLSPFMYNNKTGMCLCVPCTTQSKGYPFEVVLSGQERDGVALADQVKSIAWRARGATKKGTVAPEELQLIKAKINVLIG
Assay: activation of MazEF endoribonuclease cleavage – biochemical, fluorescence, single-stranded RNA substrate, uHTS hits, dose response (AID 588481)

COc1ccc(N=CCC(=O)c2ccc(C)cc2)cc1OC [SMR000269732]
EC50: > 99 µM

CCOc1ccc(N=CCC(=O)c2ccc(OC)cc2)c([N+](=O)[O-])c1
EC50: > 99 µM

CCC(N=Nc1cccc(C)c1)c1cnnc(SC)n1 (stereo not drawn) [MLS000705906]
EC50: > 99 µM

COc1ccc(CN=Nc2ccc([N+](=O)[O-])cc2S(=O)(=O)N2CCN(C)CC2)cc1 [MLS000553953]
EC50: > 99 µM

N#CC(C(=O)c1ccc([N+](=O)[O-])o1)c1nc2ccccc2[nH]1 (stereo not drawn)
EC50: > 99 µM

Cc1cccc(NNC2=c3cc(F)ccc3=NC2=O)c1 [MLS000673317]
EC50: 38.7 µM

O=C1Nc2ccc([N+](=O)[O-])cc2C1=NNc1ccc(F)cc1
EC50: > 99 µM

Cc1[nH]c2ccccc2c1/C=C1\N=C(c2ccc(C(F)(F)F)cc2)OC1=O [SMR000152363]
EC50: > 99 µM

Oc1ccc2ccccc2c1C=Nn1c(O)csc1=S [MLS002707175]
EC50: > 99 µM

COCc1n[nH]c2c1C(c1cc(OC)c(O)c(OC)c1)C(C#N)C(=N)O2 (stereo not drawn) [6-azanyl-4-(3,5-dimethoxy-4-oxidanyl-phenyl)-3-(methoxymethyl)-2,4-dihydropyrano[2,3-c]pyrazole-5-carbonitrile]
EC50: > 99 µM

O=C1N=c2ccccc2=C1NNc1ccc(F)cc1
EC50: > 99 µM

Cc1nnc(N2C(=O)C(=O)C(C(=O)c3ccco3)C2c2ccc(C(C)(C)C)cc2)s1 (stereo not drawn) [2-(4-tert-butylphenyl)-3-(furan-2-carbonyl)-4-hydroxy-1-(5-methyl-1,3,4-thiadiazol-2-yl)-2H-pyrrol-5-one]
EC50: > 99 µM

CCN(CC)c1ccc(CN=Nc2ccc([N+](=O)[O-])cn2)cc1 [N-[[4-(diethylamino)phenyl]methylideneamino]-5-nitro-pyridin-2-amine]
EC50: > 99 µM

C=CCOc1cccc(C2C(C(=O)c3ccc(C)o3)C(=O)C(=O)N2c2nccs2)c1 (stereo not drawn) [3-(5-methylfuran-2-yl)carbonyl-4-oxidanyl-2-(3-prop-2-enoxyphenyl)-1-(1,3-thiazol-2-yl)-2H-pyrrol-5-one]
EC50: 11.4 µM

O=C1N=c2ccccc2=C1NNc1cccc(Cl)c1 [(3E)-1H-indole-2,3-dione 3-[(3-chlorophenyl)hydrazone]]
EC50: > 99 µM

CC1CC(=O)C2=C(C1)OC(=N)C(C#N)C2c1coc2ccccc2c1=O (stereo not drawn)
EC50: > 99 µM

Cc1cc(O)n(-c2ccc(NCc3ccc(Cl)cc3)c([N+](=O)[O-])c2)c1O [1-{4-[(4-chlorobenzyl)amino]-3-nitrophenyl}-3-methylpyrrolidine-2,5-dione]
EC50: 96.1 µM

O=C1C(=O)N(c2nccs2)C(c2ccccc2)C1C(=O)c1cc2ccccc2o1 (stereo not drawn) [3-(1-benzofuran-2-carbonyl)-4-hydroxy-2-phenyl-1-(1,3-thiazol-2-yl)-2H-pyrrol-5-one]
EC50: > 99 µM

Cc1ccc(NN=C2C(=O)N(CN3CCOCC3)c3ccccc32)cc1 [(3Z)-3-[(4-methylphenyl)hydrazinylidene]-1-(4-morpholinylmethyl)-2-indolone]
EC50: 39.4 µM

O=[N+]([O-])c1cc/c(=N\c2ccccc2O)c2no[nH]c1-2 [MLS001206694]
EC50: > 99 µM

CCSc1nnc(N2C(=O)C(=O)C(C(=O)c3ccco3)C2c2cccc(OC)c2)s1 (stereo not drawn) [MLS001140620]
EC50: > 99 µM

CC1(C)CC(=O)C(N=Nc2cc3c(cc2[N+](=O)[O-])OCCO3)C(=O)C1 [SMR000348183]
EC50: > 99 µM

CSc1nnc(N2C(=O)C(=O)C(C(=O)c3ccc(C)o3)C2c2ccc(C)cc2)s1 (stereo not drawn) [SMR000650392]
EC50: 9.87 µM

N=C(N)C1=CC(=O)/C(=C/C=c2ccc(=C(N)N)cc2)C=C1 [(4E)-4-[2-[4-[bis(azanyl)methylidene]cyclohexa-2,5-dien-1-ylidene]ethylidene]-3-oxidanylidene-cyclohexa-1,5-diene-1-carboximidamide;2-oxidanylethanesulfonic acid]
EC50: 4.77 µM

Cc1ccc(N/N=C2/C(=O)Nc3ccc(F)cc32)cc1 [5-fluoro-3-[2-(4-methylphenyl)hydrazono]indolin-2-one]
EC50: > 99 µM

COc1cc(C2c3c(-c4cccs4)n[nH]c3OC(=N)C2C#N)cc(OC)c1O (stereo not drawn) [SMR000275523]
EC50: > 99 µM

CSc1ccc(C2C(C(=O)c3ccco3)C(=O)C(=O)N2c2nnc(SC)s2)cc1 (stereo not drawn) [3-(furan-2-carbonyl)-4-hydroxy-2-(4-methylsulfanylphenyl)-1-(5-methylsulfanyl-1,3,4-thiadiazol-2-yl)-2H-pyrrol-5-one]
EC50: > 99 µM

CCOc1cccc(C2C(C(=O)c3ccc(C)o3)C(=O)C(=O)N2c2nccs2)c1 (stereo not drawn) [2-(3-ethoxyphenyl)-3-(5-methylfuran-2-yl)carbonyl-4-oxidanyl-1-(1,3-thiazol-2-yl)-2H-pyrrol-5-one]
EC50: 16.9 µM

COc1ccc(Nc2oc3cc(=O)ccc-3cc2C(=O)NCC2CCCO2)c(OC)c1 (stereo not drawn) [2-(2,4-dimethoxyanilino)-7-oxo-N-(2-oxolanylmethyl)-1-benzopyran-3-carboxamide]
EC50: > 99 µM

COc1cccc(C2=Nc3nnnn3C(c3ccc(N(C)C)cc3)C2)c1 (stereo not drawn) [4-[5-(3-methoxyphenyl)-1,7-dihydro-[1,2,3,4]tetrazolo[1,5-a]pyrimidin-7-yl]-N,N-dimethyl-aniline]
EC50: > 99 µM

O=c1[nH]c(N=NCc2ccc(F)cc2)nc2ccccc12 [MLS000700887]
EC50: 7.12 µM

Cc1ccc(C2=Nc3nnnn3C(c3ccc(N(C)C)cc3)C2)cc1 (stereo not drawn) [SMR000092467]
EC50: > 99 µM

Cc1ccc2nc(N3C(=O)C(=O)C(C(=O)c4ccco4)C3c3cccs3)sc2c1 (stereo not drawn)
EC50: > 99 µM

CCCN1C(=O)C(=NNc2ccc3ccccc3n2)c2ccccc21 [(3Z)-1-propyl-3-(2-quinolinylhydrazinylidene)-2-indolone]
EC50: > 99 µM

CCN1C(=O)C(C=NN=Cc2ccccc2)c2ccc(C3=NNC(=O)CC3)cc21 (stereo not drawn) [benzaldehyde {[1-ethyl-2-oxo-6-(6-oxo-1,4,5,6-tetrahydro-3-pyridazinyl)-1,2-dihydro-3H-indol-3-ylidene]methyl}hydrazone]
EC50: > 99 µM

O=C(c1ccc2ccccc2n1)c1[nH][nH]c2c(O)n(-c3cccc(C(F)(F)F)c3)c(=O)c1-2 [SMR000212847]
EC50: 47.9 µM

Cc1oc(C)c2c(=O)ccc3c(c12)OC(=N)C(C#N)C3c1ccccc1 (stereo not drawn)
EC50: > 99 µM

O=C1N=c2ccc(Br)cc2=C1NNc1ccc(F)cc1 [SMR000564049]
EC50: > 99 µM

CCCCOc1cccc(C2C(C(=O)c3ccc(C)o3)C(=O)C(=O)N2c2nnc(C)s2)c1 (stereo not drawn) [2-(3-butoxyphenyl)-3-(5-methylfuran-2-yl)carbonyl-1-(5-methyl-1,3,4-thiadiazol-2-yl)-4-oxidanyl-2H-pyrrol-5-one]
EC50: > 99 µM

Cc1ccc(Cl)c2c1=NC(=O)C=2NNc1ccccc1
EC50: 19.1 µM

Cn1c(C(C#N)C(=O)COc2ccc3ccccc3c2)nc2ccccc21 (stereo not drawn) [(2E)-2-(3-methyl-1H-benzimidazol-2-ylidene)-4-(2-naphthalenyloxy)-3-oxobutanenitrile]
EC50: > 99 µM

O=[N+]([O-])c1ccc(N=NCc2cccc3ccccc23)nc1 [N-(naphthalen-1-ylmethylideneamino)-5-nitro-pyridin-2-amine]
EC50: > 99 µM

CCOC(=O)c1c(NC=C2C(=O)NC(=O)NC2=O)sc2c1CCC2 [ethyl 2-{[(1E)-(2,4,6-trioxohexahydropyrimidin-5-yl)methylene]amino}-5,6-dihydro-4H-cyclopenta[b]thiophene-3-carboxylate]
EC50: > 99 µM

Cc1[nH]c2ccccc2c1/C=C1\N=C(c2ccc(F)cc2)OC1=O [2-(4-fluorophenyl)-4-[(2-methyl-1H-indol-3-yl)methylene]-1,3-oxazol-5(4H)-one]
EC50: > 99 µM

Cc1ccc(S(=O)(=O)N[N-][C+]2CCC(C(C)(C)C)CC2)cc1[N+](=O)[O-] [SMR000241764]
EC50 (inactive by the depositor's call): 52 µM

CCCCN1C(=O)C(=NNc2ccccc2O)c2ccccc21 [(3Z)-1-butyl-3-[(2-hydroxyphenyl)hydrazinylidene]indol-2-one]
EC50: 44.9 µM

Clc1cccc(C(Cc2nc3ccccc3[nH]2)N=Nc2ccccc2)c1 (stereo not drawn) [MLS000374846]
EC50: > 99 µM

O=C1Nc2ccccc2C1=NNc1ccccc1 [3-(phenylhydrazo)-2-indolone]
EC50: > 99 µM

N#Cc1ccc(-n2c(O)c3[nH][nH]c(C(=O)c4ccc5ccccc5n4)c-3c2=O)cc1 [4-[(3aS,6aS)-4,6-dioxo-3-[oxo(2-quinolinyl)methyl]-3a,6a-dihydro-1H-pyrrolo[3,4-c]pyrazol-5-yl]benzonitrile]
EC50: 15.1 µM

COc1ccc(C=C2CCCC(C(=O)C(F)(F)F)C2=O)cc1 (stereo not drawn) [SMR000142699]
EC50: > 99 µM

C=c1[nH]n(-c2ccccc2)c(=O)c1=Cc1cc(C)n(C2CC2)c1C [MLS001018445]
EC50: > 99 µM

O=C1N=c2ccccc2=C1NNc1ccccc1F
EC50: > 99 µM

COc1cc2c(cc1OC)C(CC(=O)c1ccc([N+](=O)[O-])c(C)c1)=NCC2 [(2Z)-2-(6,7-dimethoxy-3,4-dihydro-2H-isoquinolin-1-ylidene)-1-(3-methyl-4-nitrophenyl)ethanone]
EC50: > 99 µM

O=[N+]([O-])c1ccc(N=NCc2ccccc2)c(F)c1 [2-fluoranyl-4-nitro-N-[(phenylmethylidene)amino]aniline]
EC50: > 99 µM

O=c1cc2oc(O)c3cc(O)c(O)c(O)c3c-2oc1=O [6,8,9,10-tetrahydroxypyran[3,2-c]isochromene-2,3-quinone]
EC50: 80.5 µM

O=C1NC(=O)N(C2CCCCC2)C(=O)C1=CCC=Nc1ccccc1 [(5Z)-5-[(E)-3-anilinoprop-2-enylidene]-1-cyclohexyl-1,3-diazinane-2,4,6-trione]
EC50: > 99 µM

O=[N+]([O-])c1ccc(N=NCc2ccc3c(c2)OCO3)nc1 [N-(1,3-benzodioxol-5-ylmethylideneamino)-5-nitro-pyridin-2-amine]
EC50: 40.5 µM

O=C(c1ccc2ccccc2n1)c1[nH][nH]c2c(O)n(-c3cccc(F)c3)c(=O)c1-2 [(3aS,6aS)-5-(3-fluorophenyl)-3-[oxo(2-quinolinyl)methyl]-3a,6a-dihydro-1H-pyrrolo[3,4-c]pyrazole-4,6-dione]
EC50: 20.5 µM
